In article PMC11249646, “Small-Molecule Disruptors of the Interaction between Calcium- and Integrin-Binding Protein 1 and Integrin αIIbβ3 as Novel Antiplatelet Agents” (ACS Pharmacology & Translational Science, 2024):
Read-outs that look alike come from different tables or passages of the source.

Assays:
[1] = molecular target: T1, GST-CIB1 : F-scrambled peptide (Homo sapiens, UniProt Q99828); assay: FP scrambled-peptide counter screen, 1536-well format; assay type: binding; conditions: for COUNTERSCREEN Curve Class / Curve Class (counterscreen): qHTS curve class; for Confirm? (counterscreen): YES/NO; for IC50: read-out: IC50 [μM] (counterscreen)
T1 construct: made in house; host or cells: BL-21 plus RIL cells (E. coli)
T1 sequence (Q99828 1-191): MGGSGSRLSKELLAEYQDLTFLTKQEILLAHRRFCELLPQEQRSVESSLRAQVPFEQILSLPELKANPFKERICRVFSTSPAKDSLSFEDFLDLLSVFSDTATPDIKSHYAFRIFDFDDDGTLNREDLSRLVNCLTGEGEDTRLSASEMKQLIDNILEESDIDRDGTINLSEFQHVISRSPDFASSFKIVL

[2] = molecular target: T2, CIB1 and αIIb interaction (CIB1-GST : F-αIIb peptide) (Homo sapiens, UniProt Q99828); assay: FP assay, 1536-well qHTS format (primary and confirmatory screen); assay type: binding; conditions: for CONFIRMATORY SCREEN Curve Class / Curve Class (confirmatory screen): qHTS curve class
T2 construct: made in house; host or cells: BL-21 plus RIL cells (E. coli)
T2 sequence (Q99828 1-191): T1 sequence (Q99828 1-191)

[3] = qHTS primary screen hits, Table S2, negative = inhibition
[4] = qHTS primary screen hits, Table S2, negative sign = inhibitory curve, several classes where COUNT > 1
[5] = qHTS primary screen hits, Table S2, read-out: IC50
[6] = counterscreen, negative sign = inhibitory curve
[7] = confirmatory screen, negative sign = inhibitory curve
[8] = confirmatory screen, read-out: IC50 [μM] (confirmatory screen)
[9] = qHTS FP screen hits, Table S2, negative = inhibition
[10] = qHTS FP screen hits, Table S2, read-out: IC50
[11] = Table S3, counterscreen, a negative sign marks inhibitory curves
[12] = Table S3, counterscreen, negative = inhibition
[13] = Table S3, confirmatory screen, YES/NO call
[14] = Table S3, confirmatory screen, a negative sign marks inhibitory curves
[15] = Table S3, confirmatory screen, negative = inhibition
[16] = Table S3, confirmatory screen, read-out: IC50 [μM] (confirmatory screen)
[17] = qHTS FP screen hits, Table S2, one class per curve where COUNT > 1, negative sign = inhibitory curve
[18] = qHTS primary screen hits, Table S2, negative sign = inhibitory curve

Compound	Efficacy (%) [2, 3] [%]	Curve Class [2, 4]	IC50 [2, 5] [µM]	Efficacy (%) (counterscreen) ([1]; counterscreen)	Curve Class (counterscreen) [1, 6]	IC50 ([1]; counterscreen) [µM]	Efficacy (%) (confirmatory screen) ([2]; confirmatory screen)	Confirm? (confirmatory screen) ([2]; confirmatory screen, YES/NO)	Curve Class (confirmatory screen) [2, 7]	Curve Class (counterscreen) [1, 11]	Efficacy (%) (counterscreen) [1, 12]	Curve Class (confirmatory screen) [2, 14]	Efficacy (%) (confirmatory screen) [2, 15]	other results
Cl.O=S(=O)(Nc1nccs1)c1ccc(NCc2cc(Cl)cc(Br)c2O)cc1 [NCGC00273965-01]	-33	-1.4	11.2	–	–	–	–	–	–	–	–	–	–	COUNTERSCREEN Efficacy (%) ([1]; counterscreen): 0%; COUNTERSCREEN Curve Class ([1]; counterscreen): 4; CONFIRMATORY SCREEN Efficacy (%) ([2]; confirmatory screen): -19%; CONFIRMATORY SCREEN Curve Class ([2]; confirmatory screen): 4
O=C(O)C(F)(F)F.O=S(=O)(Nc1nccs1)c1ccc(NCc2cc(F)cc(Cl)c2O)cc1 [NCGC00273967-01]	-28	-1.4	1.8	170	3	39.8	-40	YES	-1.4	–	–	–	–	Confirm? (counterscreen) ([1]; counterscreen): YES; IC50 [2, 8]: 31.6 µM
CC1=NN(c2ccc(C)c(C)c2)C(=O)/C1=N/Nc1cccc(-c2cccc(C(=O)O)c2)c1O [NCGC00274067-01]	–	–	–	-37	-1.2	35.5	-83	YES	-2.2	–	–	–	–	IC50 [2, 8]: 22.4 µM; Efficacy (%) [2, 9]: -69%; IC50 [2, 10]: 44.7 µM
COc1cccc(CN(C)c2ccc(S(=O)(=O)Nc3nccs3)cc2)c1O.O=C(O)C(F)(F)F [NCGC00318978-01]	–	–	–	–	–	–	–	–	–	-2.4	-33	-2.4	-35	IC50 ([1]; Table S3, counterscreen): 39.8 µM; Confirm? (confirmatory screen) [2, 13]: YES; IC50 [2, 16]: 44.7 µM; Efficacy (%) [2, 9]: -24%; IC50 [2, 10]: 17.8 µM
O=C(O)C(F)(F)F.O=S(=O)(Nc1nc2ccccc2s1)c1ccc(NCc2ccc(Br)cc2O)cc1 [NCGC00319026-01]	–	–	–	-15	4	–	-45	YES	-2.4	–	–	–	–	Confirm? (counterscreen) ([1]; counterscreen): YES; Efficacy (%) [2, 9]: -50%; Curve Class [2, 17]: -2.2; IC50 [2, 10]: 39.8 µM
Cc1cc(SCc2sc(-c3ccc(Cl)c(Cl)c3)nc2C)ccc1OCC(=O)O.O=C(O)C(F)(F)F [NCGC00319075-01]	-41	–	34	78	–	79.4	-74	YES	-3	–	–	–	–	Confirm? (counterscreen) ([1]; counterscreen): YES; IC50 [2, 8]: 35.5 µM
COc1cc(C=C2C(=O)Nc3ccccc32)cc(OC)c1O [NCGC00343740-01]	-53	-2.2	44.7	-44	-2.4	44.7	-81	YES	-2.2	–	–	–	–	–
Cc1ccc(S(=O)(=O)Nc2cnccc2C(=O)Nc2ccc(-c3nnn[nH]3)cc2)cc1.O=C(O)C(F)(F)F [NCGC00343837-01]	-24	–	31.6	-40	4	–	-63	YES	-2.4	–	–	–	–	Confirm? (counterscreen) ([1]; counterscreen): YES; IC50 [2, 8]: 35.5 µM; Curve Class [2, 18]: -2.4
O=C(O)C(F)(F)F.O=S(=O)(Nc1ccc(N2CCNCC2)cc1)c1ccc(NCc2ccc(Br)cc2O)cc1 [NCGC00343874-01]	-76	-2.2	79.4	–	–	–	–	–	–	-2.2	-58	-2.4	-41	IC50 ([1]; Table S3, counterscreen): 44.7 µM; Confirm? (confirmatory screen) [2, 13]: YES
N#Cc1ccc(NS(=O)(=O)c2ccc(NC(=O)Cc3ccc(F)c(Cl)c3)cc2)cc1.O=C(O)C(F)(F)F [NCGC00343891-01]	-15	-1.4	4	–	–	–	–	–	–	3	154	3	72	IC50 ([1]; Table S3, counterscreen): 89.1 µM
C[C@@H](NCc1cc2ccccc2[nH]1)c1cccc2ccccc12.Cl [NCGC00344505-01]	-31	-2.4	21.5	–	–	–	–	–	–	4	-21	4	-25	–
COc1ccc(S(=O)(=O)Nc2cnccc2C(=O)Nc2nc(-c3ccccc3)cs2)cc1.O=C(O)C(F)(F)F [NCGC00344944-01]	–	–	–	-81	-2.2	44.7	-81	YES	-2.2	–	–	–	–	Efficacy (%) [2, 9]: -52%; Curve Class [2, 17]: -2.2; IC50 [2, 10]: 39.8 µM
O=C(Nc1nc(-c2ccccc2)cs1)c1ccncc1NS(=O)(=O)c1cccs1.O=C(O)C(F)(F)F [NCGC00345032-01]	-59	-2.2	–	-52	-2.2	79.4	-85	YES	-1.2	–	–	–	–	Confirm? (counterscreen) ([1]; counterscreen): YES; IC50 [2, 8]: 25.1 µM
CO[C@@H]1C(N(C)C(=O)c2ccccc2)C[C@H]2O[C@]1(C)n1c3ccccc3c3c4c(c5c6ccccc6n2c5c31)C(=O)NC4=O (stereo partly drawn) [NCGC00345083-01]	-67	-2.2	19.2	–	–	–	–	–	–	-1.1	-150	-1.2	-78	IC50 ([1]; Table S3, counterscreen): 22.4 µM; Confirm? (confirmatory screen) [2, 13]: YES; IC50 [2, 16]: 14.1 µM
CN(C)CCN1C(=O)c2cccc3cc(N)cc(c23)C1=O [NCGC00346513-01]	-32	-1.2	1.1	–	–	–	–	–	–	–	–	–	–	COUNTERSCREEN Efficacy (%) ([1]; counterscreen): -24%; COUNTERSCREEN Curve Class ([1]; counterscreen): 4; CONFIRMATORY SCREEN Efficacy (%) ([2]; confirmatory screen): -50%; CONFIRMATORY SCREEN Curve Class ([2]; confirmatory screen): 4
Cc1nc(C(=O)NCC(=O)O)c(O)c2ccc(Oc3ccccc3)cc12 [NCGC00346527-01]	-24	–	38.5	–	–	–	–	–	–	–	–	–	–	COUNTERSCREEN Efficacy (%) ([1]; counterscreen): 0%; COUNTERSCREEN Curve Class ([1]; counterscreen): 4; CONFIRMATORY SCREEN Efficacy (%) ([2]; confirmatory screen): -26%; CONFIRMATORY SCREEN Curve Class ([2]; confirmatory screen): 4; Curve Class [2, 18]: -2.4
Nc1cccc2c1C(=O)N(C1CCC(=O)NC1=O)C2=O (stereo not drawn) [NCGC00346551-01]	-43	-2.2	21.5	–	–	–	–	–	–	-2.1	-91	-2.2	-78	IC50 ([1]; Table S3, counterscreen): 44.7 µM; Confirm? (confirmatory screen) [2, 13]: YES; IC50 [2, 16]: 50.1 µM
